Measured values as given in patent publication US5238958A, “Substituted α-amino acids having selected acidic moieties for use as excitatory amino acid antagonists in pharmaceuticals” (Warner-Lambert Company, priority 1990, dated 1993).
pIC50: −log10 of the molar value. Where a name gives a salt, the structure may show the parent alone.

target: NMDA receptor; experiment: NMDA receptor binding assay using [3H]CPP as antagonist ligand; conditions: in vitro, essentially as Murphy et al, J. Pharm. Exp. Ther. 240:778 (1987)
Excerpt: The activity of the compounds of the formula I is shown in vitro in an NMDA receptor binding assay based on the use of [^3 H]CPP as antagonist ligand in a manner essentially as set out by B. E. Murphy, et al, in J. Pharm. Exp. Ther. 240:778 (1987).

pIC50, > 4.00:
NC(C(=O)O)c1ccc(CC(=O)O)cc1 (racemic) [Example I1, 1,4-Benzenediacetic acid, α-amino-, (±)]
NC(C(=O)O)c1ccc(CC(=O)O)c(O)c1 (racemic) [Example I3, 1,4-Benzenediaoetic acid, α-amino-2-hydroxy-,-monohydrochloride, (±)]
NC(C(=O)O)c1ccc(O)c(CC(=O)O)c1 (stereo not drawn) [Example I2, α-Amino-4-hydroxy-1,3-benzenediacetic acid]
